Patent publication US20250041387A1, “POLYPEPTIDE SEQUENCE OF KDM6B AND APPLICATION OF KDM6B IN REGULATING AND CONTROLLING FUNCTION OF MESENCHYMAL STEM CELL” (BEIJING STOMATOLOGICAL HOSPITAL, CAPITAL MEDICAL UNIVERSITY, priority 2021, published 2025)

Columns and labels:
WDR5 synthetic protein = WDR5 synthetic protein (Homo sapiens, UniProt P61964); experiment: Polypeptide microarray of KDM6B incubated with biotin-labeled WDR5; assay type: binding; details: FIG. 3A, B; positive = optical density more than 30%
Description: • (1) Synthesis of polypeptide chip: A polypeptide chip was designed by overlapping and synthesized according to the sequence of KDM6B protein, with a total of two arrays. • (2) Synthesis of polypeptide microarray: A matrix membrane was activated, and placed on a fully automated polypeptide chip synthesizer. A Fmoc-amino acid solution was automatically transferred to a specific position on the activated membrane according to the set procedure, to react with the membrane. The membrane was immersed sequentially into the blocking solution I and II to block side chains, and washed with dimethyl formamide (DMF). The membrane was placed in a deprotection solution to remove the Fmoc protective group at the amino-terminal, then washed with DMF, and dried with ethanol. The above steps were repeated until all polypeptide microarrays were completely synthesized. After the synthesis was completed, the protective groups of the side chains were removed with specific organic reagents. […] The control group was incubated with the blocking solution. • (6) Streptavidin-HRP incubation: The reaction reagent Streptavidin-HRP (High Sensitivity Streptavidin-HRP (prod #21133)) was diluted with the blocking solution in an ratio of 1:10000, and then the polypeptide microarray chip was incubated with 5 ml of the diluted Streptavidin-HRP under shaking at room temperature for 2 hours, and washed. • (7) Color development: ECL luminescence reagent was added, and digital imaging was performed on a Chempchemi digital imager. • (8) Scan of polypeptide microarray chip and data analysis of color spot: The colored polypeptide microarray chip was imaged at 425 nm using the Chempchemi Imaging System with 200 s exposure. The optical density of colored spots was analyzed using TotalLab image analysis software, and the optical density of each colored spot was calculated using the “Spot Edge Average” algorithm in the software, with the optical density of the surrounding background of each colored spot as a reference. […]

[1] = target: KDM6B/WDR5 protein complex (Homo sapiens, UniProt P61964); experiment: Co-IP of KDM6B/WDR5 complex in bone marrow mesenchymal stem cells; assay type: cell-based; parameters: endogenous in cells; host or cells: bone marrow mesenchymal stem cells; details: FIG. 3C
Description: Protein was extracted from cells of knockout group and overexpression group using IP lysate. The knockout group cells SCAPs-Scramsh and SCAPs-KDM6Bsh, SCAPs-Scramsh and SCAPs-WDR5sh, BMSCs-Scramsh and BMSCs-WDR5sh were added with KDM6B antibody, WDR5 antibody, and IgG antibody, respectively, and then rotated on a shaker at 4° C. overnight. On the next day, the cells were added with Protein A/G beads and rotated on a rotary shaker at 4° C. for 2 hours. A complex of protein-antibody-agarose bead was formed, and the formation of a protein complex of KDM6B and WDR5WB was detected by WB. The overexpression group cells SCAPs-Vector, SCAPs-HA-KDM6B, SCAPs-HA-KDM6B-mut102, and SCAPs-HA-KDM6B-mut114 were added with ProteinA/G beads with HA antibody, and cells SCAPs Vector and SCAPs-Myc-WDR5 were added with ProteinA/G beads with Myc antibody. All cells were incubated overnight to form a complex of protein-antibody-agarose bead. The formation of a protein complex of KDM6B and WDR5 was detected by WB method. • (2) Grouping: Input group (loading amount of 25 μg); antibody group (loading amount of 800 μg, 2 μg of antibody); IgG group (loading amount of 800 μg, 2 μg of antibody). Samples were diluted with lysate. • (3) Preparation of protein A/G beads
The protein A/G beads were washed 4 times with PBS, and centrifuged at 2000 g for 2 minutes. The supernatant was carefully collected, and added with PBS to achieve a content of protein A/G beads of 50%. 30 μL of protein A/G beads was added to each tube, and rotated at 4 degrees overnight. • (4) The samples were centrifuged at 5000 rpm for 30 s at 4° C., and washed 4-5 times with PBS by inverted up and down. Then the samples were centrifuged, and the supernatant was discarded. The samples were added with 30 μL of 2× loading buffer, and placed at 100° C. for 5 minutes. • (5) The supernatant was subjected to electrophoresis.

For “FITC-(Acp)-IVPMIHVSWNVARTVYGRKKRRQRRR [peptide 152]”, the “binding degree to WDR5 on polypeptide microarray (optical density of spots)” value (WDR5 synthetic protein) was “higher binding degree” and the “opening/blocking of the binding of KDM6B/WDR5 protein complex (Co-IP)” value [1] was “could not effectively block the binding”.
